Experiments:
[1] = test system: TNF-α, IL-6, IL-1β, MCP-1, CXCL2 in RAW 264.7 cells; test: LPS-induced cytokine and chemokine secretion, ELISA; type: cell-based, mouse; settings: LPS-stimulated RAW 264.7 cells, 24 h, concentration-dependent
Protocol: RAW264.7 cells in the logarithmic growth phase were counted and diluted to a concentration of 6 × 10^4 cells/mL. After thorough mixing, the cell suspension was seeded into 48-well plates and incubated in a humidified atmosphere containing 5% CO2 at 37 °C. Following 24 h of incubation, the culture medium was carefully aspirated, and the cells were gently washed with phosphate-buffered saline. […] After 1 h of pre-incubation, 30 μL of lipopolysaccharide (1 μg/mL) was added to each well except for the blank control group, which remained unstimulated. Following an additional 24 h incubation under identical conditions, the culture supernatants were collected to assess NO production using the Griess reagent assay. Concentrations of pro-inflammatory cytokines and chemokines were determined using commercially available ELISA kits according to the protocols.

[2] = test system: PR3; test: PR3 activity in blood and bone marrow of mice; type: in vivo, C57BL/6 mice; settings: 30 mg/kg daily gavage, 7 days
Protocol: A total of 25 C57BL/6 mice (6–8 weeks old, weighing approximately 20 g, with equal numbers of males and females) were randomly divided into five groups. Mice in the compound-treated groups were orally administered the compound once daily at doses of 0.3, 3, and 30 mg/kg for 7 consecutive days. […] Mice in the normal group were given an equal volume of normal saline at the same time points. The body weight, death rate, and behavior were observed and recorded daily for one week. After 7 days, bone marrow and blood samples were collected from the mice and lysed using 8% Triton X-100 buffer. The lysates were stored at −20 °C until testing. The activity assays for CTSC and NSPs were performed as described above. The mice were anesthetized and the tissues were taken for H&E staining.

[3] = test system: NE; test: NSPs activity in U937 cells after 5 days of treatment, NE; type: cell-based, human; settings: U937, 10 μM
Protocol: U937 cells in the logarithmic growth phase were collected and equally divided into six portions. Four of these portions were treated with DMSO solutions of the test compound at varying concentrations to achieve final concentrations of 1.25, 2.5, 5, and 10 μM, respectively. An equal volume of DMSO was added to one portion as a blank control, while another portion treated with a DMSO solution of AZD7986 served as a positive control. The cells were cultured under standard U937 conditions for 5 consecutive days, with daily medium changes and fresh compound treatments administered using the same protocol. Following 5 days of treatment, cells were harvested, washed twice thoroughly with phosphate-buffered saline, and lysed in phosphate-buffered saline containing 1% Triton X-100. The lysates were centrifuged to collect the supernatant, and protein concentrations were determined as previously described to ensure equal total protein loading across all samples. The prepared samples were stored at −20 °C until further analysis. Different assay buffers were prepared for diluting samples and measuring the activities of specific NSPs: a buffer containing 50 mM Tris and 750 mM NaCl (pH 7.4) was used for NE and PR3; a buffer containing 50 mM Tris, 750 mM NaCl, 5 mM EDTA (pH 7.4) was used for Cat G; and a buffer containing 25 mM MES, 50 mM NaCl, 5 mM DTT (pH 6.0) was used for CTSC. […]

[4] = target: T1, CTSS (Homo sapiens, UniProt P25774); test: Human recombinant cathepsins isolated enzyme assay, CTSS; type: biochemical; settings: read-out: CTSS Enz (IC50: μM)
T1 construct: purchased R&D Systems
T1 sequence (P25774 115-331): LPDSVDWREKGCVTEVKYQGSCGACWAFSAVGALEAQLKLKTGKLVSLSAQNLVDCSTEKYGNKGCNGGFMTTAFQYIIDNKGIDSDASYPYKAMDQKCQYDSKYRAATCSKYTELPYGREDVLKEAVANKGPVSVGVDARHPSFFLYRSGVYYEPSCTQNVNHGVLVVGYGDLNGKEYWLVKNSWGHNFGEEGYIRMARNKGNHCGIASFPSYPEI
Description: The protocol for evaluating the inhibitory potency of compounds against other cathepsins referred to the CTSC activity assay. Recombinant human CTSB, CTSL, CTSS and CTSK for testing were also purchased from R&D Systems Biotechnology Company. Recombinant human Cat G, NE, and PR3 For testing were purchased from MedChemExpress. A multi-functional microplate reader was used to measure the absorption of Z-Leu-Arg-AMC at excitation/emission wavelengths of 380/460 nm to assess the activity changes of CTSB and CTSL, while the absorption of MCA-Arg-Pro-Lys-Pro-Val-Glu-NVAL-Trp-Arg-Lys(DNP)-NH2 at 320/405 nm was measured to evaluate the activity changes of CTSS and CTSK. Different assay buffers were prepared for diluting samples and measuring the activities of specific NSPs: a buffer containing 50 mM Tris and 750 mM NaCl (pH 7.4) was used for NE and PR3; a buffer containing 50 mM Tris, 750 mM NaCl, 5 mM EDTA (pH 7.4) was used for Cat G; and a buffer containing 25 mM MES, 50 mM NaCl, 5 mM DTT (pH 6.0) was used for CTSC. Synthetic substrates were employed to assess the activities of NSPs and CTSC: H-Gly-Arg-AMC for CTSC, N-MeSuc-Ala-Ala-Pro-Val-pNA for NE, aminobenzoyl-Val-Ala-Asp-Cys-Ala-Asp-Gln-ethylenediamine 2,4-dinitrophenyl for PR3, and N-Suc-Ala-Ala-Pro-Phe-pNA for Cat G. Each group of tests was independently repeated at least 3 times, and IC50 values were calculated using SPSS 10.0.

Compound: C[C@@H]1C[C@H]2OC(=O)[C@@]3(C)CCC[C@@](C)([C@@H]23)[C@@]1(O)CCc1ccoc1 [Marrubiin, marrubiin]
- relative levels of TNF-α, IL-6, IL-1β, MCP-1, CXCL2 [1]: reduced to varying degrees
- remaining activity rate of PR3 ([2]; blood): ~13.6%
- remaining activity rate of PR3 ([2]; bone marrow): ~25.8%
- NE activity, % of DMSO group [3]: 8.2%
- IC50 [4]: > 5 µM

— PMC12610274, “Identification of Marrubiin as a Cathepsin C Inhibitor for Treating Rheumatoid Arthritis” (Molecules, 2025)
